Usually EC50 stands for the concentration at which the effect is half-maximal. Broadly, the IC50 is the concentration needed to halve the response being measured. Usually AC50 stands for the concentration at which the activity in the assay is half-maximal.

Experimental findings from ChEMBL document CHEMBL1201862, “PubChem BioAssay data set” (2004) are described below.

Experiment [1] concerns BJ. Put plainly: cytotoxicity toward BJ-TERT fibroblasts, dose response, cell-based, RAS-independent, luminescence (AID 1933). In kind it is functional. As to conditions: Homo sapiens.
Experiment [2] in a line: cytotoxicity toward DRD oncogenic fibroblasts, dose response, cell-based, non-viral oncogenic, luminescence (AID 1934). The experiment is classed as functional. As to conditions: Homo sapiens.
A further experiment deals with Galanin receptor type 3 (Homo sapiens, UniProt O60755). The experiment can be described thus: Fluorescence-based cell-based primary high throughput dose response assay to identify antagonists of the Galanin Receptor 3 (GalR3). In kind it is functional.
The test system of experiment [3] is BJ. The experiment can be described thus: cells. In kind it is functional, cell-based. As to conditions: Homo sapiens.
For experiment [4], the system named is BJ. Put plainly: cytotoxicity toward BJ-TERT-LT-ST fibroblasts, dose response, cell-based, RAS-independent, luminescence (AID 1935).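 Further: BJ fibroblasts immortalized with TERT plus LT and ST oncogenes.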 The experiment is classed as functional. Particulars: Homo sapiens.
Another experiment is described as follows: cells. As to conditions: HEK-CNG. In kind it is functional, cell-based.
Experiment [5] concerns the target COUP transcription factor 2 (Homo sapiens, UniProt P24468). Put plainly: Luminescence-based cell-based high throughput dose response assay to identify inhibitors of COUP-TFII (NR2F2). The experiment is classed as functional.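 Further: HEK293 cells transiently cotransfected with COUP-TFII expression vector and reporter; luciferase reporter luminescence driven by COUP-TFII from the pX2-168 reporter plasmid.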
In experiment [6] the target is T1, Microphthalmia-associated transcription factor (Homo sapiens, UniProt O75030).
T1 sequence (O75030 whole entry): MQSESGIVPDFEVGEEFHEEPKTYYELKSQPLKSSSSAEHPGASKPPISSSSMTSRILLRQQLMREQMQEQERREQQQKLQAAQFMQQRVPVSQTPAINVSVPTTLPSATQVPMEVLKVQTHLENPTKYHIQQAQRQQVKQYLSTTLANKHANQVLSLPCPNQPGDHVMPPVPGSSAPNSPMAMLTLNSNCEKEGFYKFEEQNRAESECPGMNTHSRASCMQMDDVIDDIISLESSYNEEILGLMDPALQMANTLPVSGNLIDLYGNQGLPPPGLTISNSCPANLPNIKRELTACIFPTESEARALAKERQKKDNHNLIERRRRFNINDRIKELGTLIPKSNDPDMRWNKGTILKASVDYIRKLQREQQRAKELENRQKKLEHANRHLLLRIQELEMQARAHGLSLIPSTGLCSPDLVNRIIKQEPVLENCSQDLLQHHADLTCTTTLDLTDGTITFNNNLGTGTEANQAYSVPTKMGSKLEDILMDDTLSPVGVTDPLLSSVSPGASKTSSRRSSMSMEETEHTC
Put plainly: TRPM1 promoter luciferase signal decrease, dose response, MITF inhibitor project, cell-based, SK-MEL-5, cherry-picked, set 3 (AID 493073).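 Further: SK-MEL-5 melanoma cells with luciferase driven by the MITF target TRPM1 promoter.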 The experiment is classed as functional.

The target in another experiment is Paired box protein Pax-8 (Homo sapiens, UniProt Q06710). Put plainly: inhibitors of PAX8-driven TPO luciferase reporter, dose response, RMG-I cells, cherry-pick (AID 687027).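 Further: luciferase reporter driven by Pax8 target thyroperoxidase promoter measured by SteadyGlo luminescence.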 In kind it is functional, cell-based. On the technique in general: A reporter such as luciferase makes a cellular process visible.
Experiment [7] is described as follows: inhibitors of PGC1a acetylation in cells, dose response, cell-based, cherry-picked samples (AID 720514).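 Further: potency may reflect raised or lowered acetylation signal.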 In kind it is functional.
Experiment [8] can be described thus: Fluorescence-based cell-based high throughput dose response assay for inhibitors of the interaction of nucleotide-binding oligomerization domain containing 2 (NOD2) and the receptor-interacting serine-threonine kinase 2 (RIPK2). In kind it is functional. Particulars: Homo sapiens.
Experiment [9] is described as follows: HepG2 cell cytotoxicity, dose response, cytotoxicity control, plate reader, cherry-pick, antagonist series (AID 743416). The experiment is classed as functional, cell-based.
Experiment [10] is described as follows: A549 cell cytotoxicity, dose response, cytotoxicity control, plate reader, cherry-pick, antagonist series (AID 743412). The experiment is classed as functional, cell-based.
Experiment [11] in a line: MC4R antagonists, dose response, counter-screen for LGR2 antagonist project, cell-based, plate reader, cherry pick (AID 743444).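 Further: transfected HEK 293 cells stimulated with alpha-MSH peptide; potency of inhibitors of the alpha-MSH evoked signal.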 In kind it is functional. (Counterscreens check selectivity or assay interference.)
Experiment [12] is described as follows: HEK293 cell cytotoxicity, dose response, cytotoxicity control, plate reader, cherry-picked samples (AID 743446). In kind it is functional, cell-based.
Experiment [13] in a line: LGR2 antagonists, dose response, cell-based, HEK293, CRE-luciferase reporter, cherry pick, set 2 (AID 743343).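 Further: transfected cells were stimulated with diluted bursicon conditioned medium after compound addition.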 In kind it is functional.
Experiment [14] in a line: Luminescence Cell-Based Dose Retest to Confirm Inhibitors of Cancer Stem Cells. [Related pubchem assays (depositor defined):AID2717, AID2721]. The experiment is classed as functional. Particulars: Homo sapiens.
The test system of a further experiment is INS1. The experiment can be described thus: beta cell apoptosis inhibitors, cytokine rescue, dose response, luminescence, retest (AID 449756).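 Further: cell death triggered by IL-1 beta plus TNF-alpha plus IFN-gamma mixture; protective hits raise ATP signal compared with cytokine alone wells.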 The experiment is classed as functional, cell-based. Particulars: Rattus norvegicus.
A short description of experiment [15]: microbe, parasite or virus in culture. In kind it is functional. Particulars: Mycobacterium tuberculosis.
In another experiment the target is T2, Caspase-6 (Homo sapiens, UniProt P55212).
T2 sequence (P55212 whole entry): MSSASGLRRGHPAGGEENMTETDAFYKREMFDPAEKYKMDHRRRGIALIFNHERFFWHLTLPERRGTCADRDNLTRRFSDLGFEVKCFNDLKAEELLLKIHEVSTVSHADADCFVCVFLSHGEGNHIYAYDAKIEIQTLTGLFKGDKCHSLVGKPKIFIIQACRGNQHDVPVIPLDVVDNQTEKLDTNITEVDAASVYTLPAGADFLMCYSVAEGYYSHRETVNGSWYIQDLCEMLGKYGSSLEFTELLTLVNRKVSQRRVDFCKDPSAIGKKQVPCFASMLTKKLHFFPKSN
Put plainly: human caspase-6 inhibitors, dose response, biochemical, VEID-R110 fluorescence, cherry-pick (AID 720632).

A further experiment concerns the target Caspase-8 (Homo sapiens, UniProt Q14790). The experiment can be described thus: caspase-8 inhibition counter-screen, dose response, selectivity assay for caspase-6 inhibitor project, biochemical, Z-IETD-R110 fluorescence, cherry-picked samples (AID 743294).
The target in a further experiment is T3, Caspase-3 (Homo sapiens, UniProt P42574).
T3 sequence (P42574 whole entry): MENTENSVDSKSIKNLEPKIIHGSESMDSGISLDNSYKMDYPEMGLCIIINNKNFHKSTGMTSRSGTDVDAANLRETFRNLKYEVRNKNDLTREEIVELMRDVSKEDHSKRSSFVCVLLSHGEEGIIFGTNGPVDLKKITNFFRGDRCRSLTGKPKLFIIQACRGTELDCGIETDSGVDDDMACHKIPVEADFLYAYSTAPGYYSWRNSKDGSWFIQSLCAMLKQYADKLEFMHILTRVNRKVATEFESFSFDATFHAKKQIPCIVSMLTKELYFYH
The experiment can be described thus: caspase-3 enzyme inhibitors, selectivity check, dose response, selectivity assay for caspase-6 allosteric inhibitor project, biochemical, fluorescence, cherry-picked samples (AID 743291).

Experiment [16] concerns the target T4, Sentrin-specific protease 8 (Homo sapiens, UniProt Q96LD8).
T4 sequence (Q96LD8 whole entry): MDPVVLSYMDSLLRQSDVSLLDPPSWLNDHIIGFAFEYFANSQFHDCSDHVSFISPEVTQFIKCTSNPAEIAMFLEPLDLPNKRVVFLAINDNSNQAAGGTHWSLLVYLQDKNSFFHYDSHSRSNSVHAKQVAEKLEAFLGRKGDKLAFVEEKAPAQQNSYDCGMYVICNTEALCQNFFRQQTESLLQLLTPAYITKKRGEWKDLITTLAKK
In kind it is functional.

Another experiment deals with T5, Caspase-9 (Homo sapiens, UniProt P55211).
T5 sequence (P55211 whole entry): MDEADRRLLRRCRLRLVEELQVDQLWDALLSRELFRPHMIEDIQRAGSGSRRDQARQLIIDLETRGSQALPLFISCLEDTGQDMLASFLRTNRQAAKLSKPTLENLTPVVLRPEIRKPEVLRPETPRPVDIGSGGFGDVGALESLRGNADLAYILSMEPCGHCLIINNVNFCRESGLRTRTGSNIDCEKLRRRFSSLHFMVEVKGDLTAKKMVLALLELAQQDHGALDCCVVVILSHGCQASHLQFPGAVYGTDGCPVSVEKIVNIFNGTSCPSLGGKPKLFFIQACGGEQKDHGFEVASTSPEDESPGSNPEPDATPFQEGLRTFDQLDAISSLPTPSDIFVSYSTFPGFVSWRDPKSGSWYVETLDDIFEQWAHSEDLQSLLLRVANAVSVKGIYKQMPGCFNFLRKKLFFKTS
Put plainly: caspase-9 enzyme inhibition, dose response, selectivity assay for caspase-6 inhibitor project, biochemical, fluorescence, plate reader, cherry-picked samples (AID 743293).

The target in experiment [17] is T4, Sentrin-specific protease 8. The experiment is classed as functional. This is another data set of the same source.
In experiment [18] the target is T6, Histone-lysine N-methyltransferase NSD2 (Homo sapiens, UniProt O96028).
T6 sequence (O96028 whole entry): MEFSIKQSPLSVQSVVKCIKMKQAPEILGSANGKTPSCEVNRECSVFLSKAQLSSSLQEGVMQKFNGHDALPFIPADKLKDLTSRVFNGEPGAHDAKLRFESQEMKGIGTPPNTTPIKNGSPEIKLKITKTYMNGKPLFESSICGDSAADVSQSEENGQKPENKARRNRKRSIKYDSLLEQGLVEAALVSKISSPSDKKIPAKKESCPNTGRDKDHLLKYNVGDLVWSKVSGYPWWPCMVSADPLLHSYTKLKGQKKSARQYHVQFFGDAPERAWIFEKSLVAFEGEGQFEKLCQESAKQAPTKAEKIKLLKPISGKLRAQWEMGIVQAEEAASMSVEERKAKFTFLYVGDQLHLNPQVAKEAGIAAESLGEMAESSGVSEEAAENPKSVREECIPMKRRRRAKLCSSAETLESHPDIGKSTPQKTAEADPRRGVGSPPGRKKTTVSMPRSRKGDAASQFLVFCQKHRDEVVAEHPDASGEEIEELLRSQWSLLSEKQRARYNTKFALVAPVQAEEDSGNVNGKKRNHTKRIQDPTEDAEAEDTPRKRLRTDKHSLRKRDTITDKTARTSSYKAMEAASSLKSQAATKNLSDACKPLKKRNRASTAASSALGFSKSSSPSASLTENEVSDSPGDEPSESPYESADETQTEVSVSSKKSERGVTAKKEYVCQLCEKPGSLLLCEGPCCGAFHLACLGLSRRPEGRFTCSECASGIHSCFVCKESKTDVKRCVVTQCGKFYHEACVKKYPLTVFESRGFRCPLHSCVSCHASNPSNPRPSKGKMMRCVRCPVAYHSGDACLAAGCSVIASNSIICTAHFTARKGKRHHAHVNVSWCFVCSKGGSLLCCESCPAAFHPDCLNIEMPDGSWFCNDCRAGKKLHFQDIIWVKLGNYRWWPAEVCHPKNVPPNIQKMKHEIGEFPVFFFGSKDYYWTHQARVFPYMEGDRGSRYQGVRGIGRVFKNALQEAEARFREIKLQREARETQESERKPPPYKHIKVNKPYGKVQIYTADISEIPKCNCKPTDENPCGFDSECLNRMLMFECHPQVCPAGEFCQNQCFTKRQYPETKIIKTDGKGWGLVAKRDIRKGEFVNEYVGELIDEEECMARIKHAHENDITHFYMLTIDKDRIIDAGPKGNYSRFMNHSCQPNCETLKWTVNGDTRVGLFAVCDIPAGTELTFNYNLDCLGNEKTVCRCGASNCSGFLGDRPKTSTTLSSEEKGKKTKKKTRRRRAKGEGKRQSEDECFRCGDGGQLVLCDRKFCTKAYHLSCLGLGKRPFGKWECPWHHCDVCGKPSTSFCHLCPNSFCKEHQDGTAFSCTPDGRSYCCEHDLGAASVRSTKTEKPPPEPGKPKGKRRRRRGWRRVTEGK
In kind it is biochemical.

The next experiment deals with Caspase-7 (Homo sapiens, UniProt P55210). The experiment can be described thus: human caspase-7 inhibitors, dose response, selectivity assay for caspase-6 inhibitor project, biochemical, DEVD-R110 fluorescence, cherry-pick (AID 743295). In kind it is […].

Activity calls are given as the source filed them. A value given as a limit tells only on which side of the number the result lay.

Sequence of Paired box protein Pax-8 (Q06710 whole entry): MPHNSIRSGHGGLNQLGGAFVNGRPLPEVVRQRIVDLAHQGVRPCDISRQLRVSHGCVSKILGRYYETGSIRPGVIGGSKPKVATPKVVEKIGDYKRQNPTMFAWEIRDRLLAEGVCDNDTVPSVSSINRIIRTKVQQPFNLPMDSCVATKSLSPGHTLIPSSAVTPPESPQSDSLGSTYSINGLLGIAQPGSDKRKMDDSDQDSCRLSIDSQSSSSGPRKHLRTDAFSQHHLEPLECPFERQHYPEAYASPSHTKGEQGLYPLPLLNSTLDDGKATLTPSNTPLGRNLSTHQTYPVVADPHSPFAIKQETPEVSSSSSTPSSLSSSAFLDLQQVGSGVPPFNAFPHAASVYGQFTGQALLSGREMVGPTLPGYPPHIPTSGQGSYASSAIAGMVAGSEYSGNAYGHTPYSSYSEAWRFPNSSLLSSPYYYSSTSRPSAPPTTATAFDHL
Sequence of Caspase-8 (Q14790 217-374 limits assumed): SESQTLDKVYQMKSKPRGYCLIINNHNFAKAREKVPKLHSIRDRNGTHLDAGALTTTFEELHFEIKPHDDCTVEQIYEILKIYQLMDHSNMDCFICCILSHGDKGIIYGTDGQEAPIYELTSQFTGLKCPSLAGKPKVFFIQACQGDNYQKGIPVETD
Sequence of Caspase-8 (Q14790 385-479 limits assumed): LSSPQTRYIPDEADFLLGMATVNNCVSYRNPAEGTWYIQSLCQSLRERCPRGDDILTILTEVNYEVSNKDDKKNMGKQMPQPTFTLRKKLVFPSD
Sequence of COUP transcription factor 2 (P24468 whole entry): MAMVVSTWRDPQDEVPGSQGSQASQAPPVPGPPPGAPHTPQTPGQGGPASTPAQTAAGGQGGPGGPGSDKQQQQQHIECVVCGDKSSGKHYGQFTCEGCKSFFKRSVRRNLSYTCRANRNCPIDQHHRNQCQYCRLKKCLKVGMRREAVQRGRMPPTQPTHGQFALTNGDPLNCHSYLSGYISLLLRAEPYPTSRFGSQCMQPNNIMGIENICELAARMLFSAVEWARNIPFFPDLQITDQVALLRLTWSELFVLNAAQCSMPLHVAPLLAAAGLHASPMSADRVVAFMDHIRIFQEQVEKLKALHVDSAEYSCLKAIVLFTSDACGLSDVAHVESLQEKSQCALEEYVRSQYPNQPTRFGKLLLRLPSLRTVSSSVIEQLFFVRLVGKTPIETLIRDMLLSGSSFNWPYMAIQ
Sequence of Galanin receptor type 3 (O60755 whole entry): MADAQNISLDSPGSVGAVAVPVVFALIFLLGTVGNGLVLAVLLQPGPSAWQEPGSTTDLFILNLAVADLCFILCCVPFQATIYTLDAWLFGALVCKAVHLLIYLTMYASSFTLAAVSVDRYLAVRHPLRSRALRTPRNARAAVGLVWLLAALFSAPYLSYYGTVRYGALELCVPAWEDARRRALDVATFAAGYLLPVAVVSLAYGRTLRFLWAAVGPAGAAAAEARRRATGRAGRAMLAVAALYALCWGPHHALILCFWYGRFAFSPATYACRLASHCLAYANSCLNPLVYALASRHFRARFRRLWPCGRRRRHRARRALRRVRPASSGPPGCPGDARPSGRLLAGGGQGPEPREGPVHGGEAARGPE
Sequence of Caspase-7 (P55210 24-198 limits assumed): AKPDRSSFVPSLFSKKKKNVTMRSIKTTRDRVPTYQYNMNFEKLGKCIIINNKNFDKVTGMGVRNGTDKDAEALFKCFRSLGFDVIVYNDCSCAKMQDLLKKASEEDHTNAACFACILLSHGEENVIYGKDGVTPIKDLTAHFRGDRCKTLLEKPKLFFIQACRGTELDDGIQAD
Sequence of Caspase-7 (P55210 207-303 limits assumed): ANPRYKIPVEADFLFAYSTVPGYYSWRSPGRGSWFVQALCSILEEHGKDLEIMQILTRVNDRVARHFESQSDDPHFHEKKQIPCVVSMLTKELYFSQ

For the compound `COc1ccccc1N1C(C)=CC(=Cc2sc3ccccc3[n+]2C)C=C1C`, the EC50 is 3.07 µM (inconclusive) with BJ [1]; 6.24 µM (active) in experiment [2]; 2.54 µM (active) in the experiment on BJ [3]; 3.16 µM (inconclusive) in the experiment with BJ [4]; > 29.9 µM (inactive) in the experiment “cells”. In addition, the IC50 on Galanin receptor type 3 is 0.128 µM (active); in [5], 0.617 µM (active).
`Cc1ccc(NC(=O)Cn2ncc(Cl)c(Cl)c2=O)cc1S(=O)(=O)N1CCCCC1`: the AC50 is 13.7 µM (active) in [6], 4.58 µM (active) at Paired box protein Pax-8 and 7.27 µM (active) in experiment [7]. In experiment [8], the IC50 is 2.88 µM (active).
On to `Cn1nnnc1Sc1ncnc2scc(-c3cc4ccccc4o3)c12`, for which the AC50 in experiment [9] is 7.37 µM (active); in experiment [10] it was 8.38 µM (active); in experiment [11], 4.18 µM (active); in experiment [12] it was 7.82 µM (active); in experiment [13] it was 4.7 µM (active); in experiment [14], 1.41 µM (active). For the same compound, the AC50 on Paired box protein Pax-8 is 3.12 µM (active); with INS1 it was 6 µM (active); in [7], 4.29 µM (active). In addition, the CC50 in experiment [15] was 7.67 µM (active).
As to `COc1cc(N(C(C)=O)c2ccc(O)c(C(=O)O)c2)c2ncccc2c1`, the AC50 was 3.48 µM (active) on Caspase-6; 49.5 µM (active) at Caspase-8; 13.8 µM (active) at Caspase-3; 45.4 µM (active) at Caspase-9; 6.27 µM (active) in experiment [18]; 20.1 µM (active) at Caspase-7. Further, the IC50 in experiment [16] was 7.7 µM (active); in experiment [17] it was 9.87 µM (active).
